Data from BindingDB's records for doi:10.7270/Q2251GKR (Vanderbilt Screening Center for GPCRs, Ion Channels and …, 2010).

Biological target: T1, Muscarinic acetylcholine receptor M4 (Rattus norvegicus, UniProt P08485)
T1 sequence (P08485 whole entry): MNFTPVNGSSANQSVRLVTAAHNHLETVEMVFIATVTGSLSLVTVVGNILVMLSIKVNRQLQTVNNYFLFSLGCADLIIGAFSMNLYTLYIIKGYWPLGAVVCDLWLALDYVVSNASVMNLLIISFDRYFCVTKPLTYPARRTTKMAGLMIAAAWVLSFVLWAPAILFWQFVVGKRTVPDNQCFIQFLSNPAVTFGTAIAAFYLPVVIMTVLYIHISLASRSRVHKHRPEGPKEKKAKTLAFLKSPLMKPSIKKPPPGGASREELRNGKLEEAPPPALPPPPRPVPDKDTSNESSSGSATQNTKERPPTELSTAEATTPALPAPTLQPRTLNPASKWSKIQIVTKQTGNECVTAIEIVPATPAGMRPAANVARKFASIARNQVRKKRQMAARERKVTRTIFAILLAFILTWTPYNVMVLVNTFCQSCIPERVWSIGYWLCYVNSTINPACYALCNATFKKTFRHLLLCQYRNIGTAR
Experiment: rat M4 positive allosteric modulator potency, SAR follow-up, cell-based, analogs, calcium mobilization, Gqi5 (AID 1923)

Cc1cc(C)c2c(N)c(C(=O)NCc3ccc4c(c3)OCO4)sc2n1 [3-amino-4,6-dimethyl-N-piperonyl-thieno[2,3-b]pyridine-2-carboxamide]
EC50: 369 nM
